Measurements reported in patent US20230348454A1, “COMPOUNDS AS MODULATORS OF BIS-PHOSPHOGLYCERATE MUTASE FOR THE TREATMENT OF SICKLE CELL DISEASE” (Genzyme Corporation, priority 2020, published 2023).
Where two headings read alike, the source gives them in different places.

Key:
[1] = tested on: human red blood cells; assay: Human cell-based assay (2,3-BPG, ATP by LC/MS); conditions: Erythrocyte, whole blood suspension, 37° C., 24 h, read-out: hRBC EC50
Protocol: The following materials were used in this assay: DMSO; Hemox buffer (30 mM TES, 135 mM NaCl, 5 mM KCl, pH 7.4); Inosine (100 mM in hemox buffer); Glucose (1 M in water); human red blood cells; LC/MS Optima grade methanol; LC/MS Optima grade water; and Incubation buffer (30 mM TES, 135 mM NaCl, 5 mM KCl, 50 mM inosine, 20 mM glucose pH 7.4).
Test compounds were loaded onto a 96-well plate (final concentration of DMSO was 1%). 10 mL whole blood was resuspended with an equivalent amount of 2× incubation buffer to make 25% het & 50% plasma solution. The final solution contains 10 mM glucose and 25 mM inosine. The blood suspension (100 uL) was added to the wells of the plate. The plate was covered with an adhesive foil cover and plastic lid, and incubated at 37° C. for 24 h. The samples were extracted through an SPE column and the metabolites (2,3-BPG, ATP) were analyzed by LC/MS.

[2] = biological target: T1, hBPGM (Homo sapiens, UniProt P07738); assay: BPGM synthase assay; format: biochemical
T1 sequence (P07738 1-259): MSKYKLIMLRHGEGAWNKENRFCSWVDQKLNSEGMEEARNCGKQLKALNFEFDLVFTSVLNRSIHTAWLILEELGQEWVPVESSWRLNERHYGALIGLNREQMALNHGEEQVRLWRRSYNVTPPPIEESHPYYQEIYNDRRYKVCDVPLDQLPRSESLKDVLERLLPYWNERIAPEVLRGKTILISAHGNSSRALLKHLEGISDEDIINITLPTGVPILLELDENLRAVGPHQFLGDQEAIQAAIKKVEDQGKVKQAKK
In short: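 The enzyme solution held 5 nM BPGM with 0.4 U/mL coupling GAPDH in Tris pH 7.4, 3.23 mM KH2PO4, 1 mM DTT, and compounds were pre-incubated 30 min at RT. Substrate solution (2 mM NAD, 20 μM 3PG, 800 μM GAP) reacted 60 min before a koningic acid quench. NADH fluorescence (360/460) and diaphorase/resazurin-derived resorufin (544/590) were read.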

[3] = biological target: T2, human Bisphosphoglycerate mutase (hBPGM) (Homo sapiens, UniProt P07738); assay: BPGM phosphatase assay; format: biochemical
T2 sequence (P07738 1-259): T1 sequence (P07738 1-259)
Protocol: The following materials were used in this assay: Tris buffer (50 mM Tris, 0.01% Tween 20, pH 7.4); cyclohexylammonium salt of 2,3-BPG (stock solution of 500 mM in ultapure distilled water; human Bisphosphoglycerate mutase (hBPGM; stock solution of 110 μM in Standard Buffer); 3-Phosphoglyceric acid (3-PG; stock solution of 100 mM in ultrapure distilled water); 384-Well Polystyrene Plates (Fisherbrand™, Catalog No.: 12-566-625); BIOMOL GREEN REAGENT (Enzo life sciences, BML-AK111-0250); and 1 mM DMSO stock of exemplary compounds.
A 3-PG enzyme mix solution (final enzyme concentration 62.5 nM, 3-PG concentration at 50 µM, 14.5 uL) was added to onto a 384-well clear plate. Solutions of the test compounds were then added to the plate and the DMSO content was normalized across the plate. The plate was incubated at RT for 15 min. Next, the substrate 2,3-BPG (5 μL) was added to all the wells, and the plate was sealed and incubated for 24 hr at RT. After incubation, BIOMOL green dye (40 μL) was added to all the wells, the plate was shaken to mix, and the plate was incubated at RT for 20-30 min. Absorbance measurements were recorded at 620 nm.

[4] = Table 6, read-out: huBPGM: synthase Enzyme IC50
[5] = Table 6, read-out: huBPGM: phosphatase Enzyme EC50

Row | SMILES | EC50 [1] | IC50 [2, 4] | EC50 [3, 5] | IC50 ([2]; Table 3, read-out: hBPGM Synthase IC50) | EC50 ([3]; Table 4, read-out: hBPGM Phosphatase EC50)
1 | COC(=O)NCc1nc(C)c(-c2csc(-c3cc(F)c4[nH]nnc4c3F)n2)s1 [compound 16] | 22.5 µM |  |  |  | 
2 | Cc1nc(COCC(=O)N(C)C)sc1-c1csc(-c2cc(F)c(O)c(F)c2F)n1 [Example 160] |  | 460 nM | 520 nM |  | 
3 | Cc1nc(CNC(=O)c2cccnn2)sc1-c1csc(-c2cc(F)c(O)c(F)c2F)n1 [Example 186] |  | 240 nM | 350 nM |  | 
4 | Cc1nc(CNc2ncccn2)sc1-c1csc(-c2cc(F)c3[nH]nnc3c2)n1 [Example 175] |  | 79 nM | 30 nM |  | 
5 | Cc1nc(COc2ncccn2)sc1-c1csc(-c2cc(F)c(O)c(F)c2F)c1 [Example 154] |  | 110 nM | 49 nM |  | 
6 | Cc1nc(COc2ncccn2)sc1-c1csc(-c2cc(F)c3[nH]nnc3c2)c1 [Example 145] |  | 250 nM | 30 nM |  | 
7 | COC(=O)NCc1nc(C)c(-c2csc(-c3ccc4[nH]nnc4c3F)n2)s1 [Example 156] |  | 200 nM | 150 nM |  | 
8 | Cc1nc(COc2ncccn2)sc1-c1cccc(-c2ccc3nn[nH]c3c2)n1 [compound 14] |  |  |  | 1010 nM | 570 nM
9 | COC(=O)NCc1nc(C)c(-c2csc(-c3ccc(-c4nnn[nH]4)c(O)c3)n2)s1 [Example 213] |  | 160 nM | 60 nM |  | 
